The values that follow come from PubChem BioAssay AID179 (DTP/NCI, 2004).

In the experiment the test system is CEM cells HIV-1 protection, formazan growth assay. Briefly: NCI AIDS Antiviral Assay. Particulars: for pIC50: measured here: growth of uninfected CEM cells. The gist of the method: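 Screen of anti-HIV-1 activity in human CEM cells using a formazan-based growth measurement at five drug concentrations. Hits with 50% or greater protection were repeated, and confirmation required reproducible complete protection.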

pEC50, pIC50: −log10 of the molar value. Active and inactive are the calls of the source.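 How the source made its calls: active means compounds giving half or more protection of infected cells from virus-caused growth loss, again on retest; inactive means the rest.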

`O=C(O)c1ccc(Nc2nc3nn(Cc4ccccc4)cc3c(=O)s2)cc1`: the pEC50 is < 3.71 and the pIC50 was < 3.71.

For the compound `Cc1nc2ccccc2c(=O)n1NC(=S)Nc1ccccc1`, the pEC50 was < 3.94 and the negative logarithm of the IC50 (pIC50) was 3.97.

Consider `N#C/C=C\c1ccc(F)cc1`, for which the pEC50 is < 3.61 and the pIC50 was < 3.61.

Regarding `CCC(c1ccc(Cl)cc1)N1CCC2(CC1)C(=O)NCN2c1ccccc1` (configuration not stated), the pEC50 was < 3.70 and the pIC50 was < 3.70.

Consider `CO/C(N)=C(\C#N)N=Cc1ccsc1`, for which the pEC50 is < 3.70 and the pIC50 was 3.90.

As to `O=C1C(=Cc2ccc(O)cc2)N=C(c2ccccc2)N1n1c(-c2ccccc2)nc2ccccc2c1=O`, the pEC50 was < 3.70 and the negative-log IC50 (pIC50) was 4.11.

For `NC(=O)C1CCCN1C(=O)C(Cc1cnc[nH]1)NC(=O)C1CCCC1` (configuration not stated), the pEC50 was < 3.70 and the negative-log IC50 (pIC50) is < 3.70.

Consider `O=C1CSC(c2ccccc2)N1c1ccc(-n2c(-c3ccccc3)nc3ccccc3c2=O)cc1` (configuration not stated), for which the pEC50 is < 3.70 and the negative-log IC50 (pIC50) was 4.45.

As for `O=C1C2C3C=C4c5ccccc5N(c5ccccc5)C4(C2C(=O)N1c1ccc(Br)cc1)[C@H]1C(=O)N(c2ccc(Br)cc2)C(=O)[C@@H]31` (some centres not stated), the pEC50 was < 5.28 and the pIC50 is < 5.28.

`O=C1C(=O)c2c(nc3ccccn23)-c2ccccc21`: the pEC50 was < 5.70 and the pIC50 is 6.37.

As to `COc1ccc(C2=CSC3=NC(C)(C)CC(C)=NN23)cc1`, the pEC50 is < 3.50 and the negative logarithm of the IC50 (pIC50) was 3.77.

Regarding `O=c1[nH]c2cc([N+](=O)[O-])ccc2nc1/C=C(\O)c1ccc(Cl)cc1`, the pEC50 was < 4.00 and the negative logarithm of the IC50 (pIC50) is 4.06.

On to `COC1(OC)C2(Cl)CCC1(Cl)C(OC(C)=O)C2` (configuration not stated), for which the pEC50 is < 3.70 and the negative logarithm of the IC50 (pIC50) was 3.84.

On to `O=c1c(O)c(-c2ccccc2)oc2ccccc12.[Zn+2]`, for which the pEC50 was < 3.70 and the negative-log IC50 (pIC50) is 4.88.

Turning to `O=c1c2cc(Br)ccc2nc(-c2ccccc2Cl)n1NCC1(O)OCC(O)C(O)C1O` (configuration not stated), the outcome was inactive.

Take `CC1(C)/C(=N\O)C2(C#N)CCC1C2` (configuration not stated): the pEC50 is < 3.70 and the pIC50 was 3.78.

Regarding `Cc1ccc(Oc2ccc(C)cc2N)cc1`, the outcome was inactive.

`CC(=O)NC1C(CO)OC(n2cnc([N+](=O)[O-])c2C(N)=O)C1O` (configuration not stated): the pEC50 is < 3.70 and the negative logarithm of the IC50 (pIC50) was < 3.70.

With `CNC(=S)Nc1ccc(OC)c2ccccc12`, the pEC50 was < 3.70 and the pIC50 is < 3.70.

As for `CN1CCCN(C)CCCN(C)CCCN(C)CCC1`, the pEC50 is < 4.00 and the negative logarithm of the IC50 (pIC50) was < 4.00.

Turning to `Cc1ccc2c3ccc4c(c3n(C)c2c1)C(=O)C=CC4=O`, the pEC50 was < 4.00 and the pIC50 was 5.74.

Consider `CNCCSS(=O)(=O)CCNC`, for which the negative logarithm of the EC50 (pEC50) is 3.67 and the negative-log IC50 (pIC50) was 3.34.

On to `COC(=O)CNC(=O)Nc1cc(N2C(=O)ON3C2C(C)(C)N(O)C3(C)C)ccc1C` (configuration not stated), for which the pEC50 was < 3.70 and the negative logarithm of the IC50 (pIC50) is 3.77.

As for `CC(=O)Oc1cc2c(cc1OCC(F)(F)F)[C@H]1CC[C@]3(C)[C@@H](OC(C)=O)CC[C@H]3[C@@H]1CC2=O`, the pEC50 is < 3.70 and the negative logarithm of the IC50 (pIC50) was 4.65.

Regarding `c1ccc2sc(N3CCCCC3)nc2c1`, the pEC50 was < 3.70 and the pIC50 was 4.09.

With `C=CCc1cc(/C(CC)=C(/CC)c2ccc(OCCN(CC)CC)c(CC=C)c2)ccc1OCCN(CC)CC`, the pEC50 is < 3.70 and the pIC50 is 5.08.

Take `O=S(CCc1ccccc1)Nc1ccccc1` (configuration not stated): the pEC50 was < 3.70 and the pIC50 was < 3.70.

For `N#C/C(=C\NC(=S)Nc1cc(Cl)ccc1Cl)C(=O)c1ccc2ccccc2c1`, the pEC50 was < 4.00 and the negative logarithm of the IC50 (pIC50) is < 4.00.

In the case of `C[n+]1cccc2ccc3cccnc3c21`, the pEC50 was < 3.70 and the negative logarithm of the IC50 (pIC50) was 5.10.

Take `COCOC1/C=C/CCCCC2=C(C)C=C(C1)O2` (configuration not stated): the pEC50 was < 3.85 and the pIC50 is 3.88.

As for `Cc1ccc(N=Nc2c(O)c3ccccc3[nH]c2=O)c(S(=O)(=O)N(C)C)c1`, the pEC50 was < 3.70 and the negative-log IC50 (pIC50) is < 3.70.

As for `CCOC(=O)C(/C=N/C(N)=S)=C(/O)c1ccccc1`, the pEC50 was < 3.70 and the negative logarithm of the IC50 (pIC50) was < 3.70.

Turning to `S=C(N/N=C(/c1ccccc1)c1ccccn1)N(Cc1ccccn1)Cc1ccccn1`, the pEC50 is < 3.70 and the pIC50 was 7.20.

Regarding `CC(CC[C@@H](C)C1CCC2[C@@H]3CC(O)C4CC(O)[C@@H](O)C[C@]4(C)C3CC[C@@]21C)C(C)(C)C` (some centres not stated), the result was inactive.

Turning to `COC(=O)NNc1c([N+](=O)[O-])cnn(-c2ccccc2)c1=O`, the pEC50 was < 4.23 and the pIC50 is 6.53.

As to `CN(NC(=O)/C(=C\c1ccccc1Cl)NC(=O)c1ccccc1)c1cn[nH]c(=O)c1Cl`, the pEC50 was < 4.00 and the pIC50 is 4.28.

Take `CCOC(=O)c1cnc2[nH]c(=O)c3ccccc3n2c1=O`: the result was inactive.

On to `COc1ccc(C2c3cc(OC)c(OC)cc3CC3C(=O)OCC32)cc1OC` (configuration not stated), for which the pEC50 is < 3.70 and the pIC50 was < 3.70.

In the case of `C=CCOC(=O)Cn1cnc2c(N)ncnc21`, the pEC50 is < 3.70 and the pIC50 is < 3.70.

For the compound `CC(=O)Nc1ccc(C(=O)NN2C(=O)C(Cl)C2c2cccc([N+](=O)[O-])c2)cc1` (configuration not stated), the pEC50 was < 3.70 and the pIC50 was 4.07.

Regarding `COc1c(OC)c(OC)c2c(c1OC)OC(c1ccc(O)cc1)CC2=O` (configuration not stated), the pEC50 was < 3.70 and the pIC50 is 4.54.

`CCCC#CCC(CC#CCCC)(C(=O)O)C(=O)O`: the pEC50 is < 3.31 and the pIC50 is < 3.31.

Turning to `O=S1(=O)c2ccccc2-c2nccc3ccnc1c23`, the outcome was inactive.

For the compound `CCOC(=O)NC1CN2CCC1CC2` (configuration not stated), the pEC50 is < 3.70 and the negative-log IC50 (pIC50) is < 3.70.

Consider `Cn1c(C2CC(C)(C)c3c2c2ccccc2n3C)cc2ccccc21` (configuration not stated), for which the pEC50 was < 4.66 and the negative logarithm of the IC50 (pIC50) was < 4.66.

In the case of `COc1cccc(Nc2nc(NS(=O)(=O)c3cc(C)c(Cl)cc3S)n[nH]2)c1`, the pEC50 is < 3.70 and the pIC50 is 3.80.

As for `COC(=O)C1C2C1C1C=CC2n2c(=O)n(-c3ccccc3)c(=O)n21` (configuration not stated), the pEC50 was < 3.70 and the pIC50 is < 3.70.

As for `O=C1CC2(c3ccccc3)CCCCC2=NN1` (configuration not stated), the pEC50 is < 3.70 and the pIC50 was < 3.70.

As to `CC1CCN(CCCCCNC(=O)C(c2ccccc2)C2CCCCC2)CC(C)(C)C1` (configuration not stated), the pEC50 was < 4.00 and the pIC50 was 4.38.

Take `CCOC(=O)N1CCNCCN(C(=O)OCC)CCNCC1`: the pEC50 is < 3.70 and the negative-log IC50 (pIC50) is < 3.70.

Regarding `COc1ccc(-c2cc(-c3ccco3)c(C#N)c(=S)n2C2OC(COC(C)=O)C(OC(C)=O)C(OC(C)=O)C2OC(C)=O)cc1` (configuration not stated), the negative logarithm of the EC50 (pEC50) was 3.91 and the pIC50 is 3.84.

Turning to `S=C1SC(c2ccc(Cl)cc2)(c2ccc(Cl)cc2)c2ccccc21`, the pEC50 was < 3.70 and the negative-log IC50 (pIC50) is 3.91.

On to `CCCC(=O)OCC1=CCC2c3c(c4ccccc4n3C)CC1N2Cc1ccccc1` (configuration not stated), for which the pEC50 was < 4.67 and the pIC50 was 5.42.

Regarding `COc1ccccc1NC(=O)C1=C(C)NC(C)=C(C(=O)Nc2ccccc2OC)C1c1ccccc1Cl`, the result was inactive.
